Assay results reported in US8637252B2, “Methods and compositions for determining altered susceptibility of HIV-1 to anti-HIV drugs” (Monogram Biosciences, Inc., priority 2011, dated 2014).
Several values for one entry are separate records, joined by “and”; a condition that tells them apart may be missing. Equal values may be shown once.

System: HIV-1 (patient-derived PR-RT segment)
Test: phenotypic drug resistance test, resistance test vectors with patient-derived PR-RT segment, luciferase, 293 cells
Format: cell-based
From the text: Patient-derived segments corresponding to the HIV protease and reverse transcriptase coding regions (hereinafter “PR-RT) were amplified by the reverse transcription-polymerase chain reaction method (RT-PCR) using viral RNA isolated from viral particles present in the plasma or serum of HIV-infected individuals as follows. Viral RNA was isolated from the plasma or serum using oligo-dT magnetic beads (Dynal Biotech, Oslo, Norway), followed by washing and elution of viral RNA. The RT-PCR protocol was divided into two steps. A retroviral reverse transcriptase (e.g. Moloney MuLV reverse transcriptase (Roche Molecular Systems, Inc., Branchburg, N.J.; Invitrogen, Carlsbad, Calif.), or avian myeloblastosis virus (AMV) reverse transcriptase, (Boehringer Mannheim, Indianapolis, Ind.)) was used to copy viral RNA into cDNA. The cDNA was then amplified using a thermostable DNA polymerase (e.g. Taq (Roche Molecular Systems, Inc., Branchburg, N.J.), Tth (Roche Molecular Systems, Inc., Branchburg, N.J.), PRIMEZYME. (enzyme_isolated from Thermus brockianus, Biometra, Gottingen, Germany)) or a combination of thermostable polymerases as described for the performance of “long PCR” (Barnes, W. M., 1994, Proc. Natl. Acad. Sci, USA 91, 2216-20) (e.g. Expand High Fidelity PCR System (Taq+Pwo), (Boehringer Mannheim. Indianapolis, Ind.); GENEAMP® XL PCR kit (PCR kit using_Tth+Vent), (Roche Molecular Systems, Inc., Branchburg, N.J.); or ADVANTAGE II®, Clontech, Palo Alto, Calif.)
PCR primers were designed to introduce ApaI and PinAl recognition sites into the 5′ or 3′ end of the PCR product, respectively.
Resistance test vectors incorporating the “test” patient-derived segments were constructed as described in U.S. Pat. No. 5,837,464 using an amplified DNA product of 1.5 kB prepared by RT-PCR using viral RNA as a template and oligonucleotides PDS Apa, PDS Age, PDS PCR6, Apa-gen, Apa-c, Apa-f, Age-gen, Age-a, RT-ad, RT-b, RT-c, RT-f, and/or RT-g as primers, followed by digestion with ApaI and Agel or the isoschizomer PinAl. To ensure that the plasmid DNA corresponding to the resultant fitness test vector comprises a representative sample of the HIV viral quasi-species present in the serum of a given patient, many (>250) independent E. coli transformants obtained in the construction of a given fitness test vector were pooled and used for the preparation of plasmid DNA.
A packaging expression vector encoding an amphotrophic MuLV 4070A env gene product enables production in a resistance test vector host cell comprising the vector alone viral particles which can efficiently infect human target cells. Vectors encoding all HIV genes with the exception of env were used to transfect a packaging host cell (once transfected the host cell is referred to as a fitness test vector host cell). The packaging expression vector which encodes the amphotrophic MuLV 4070A env gene product is used with the resistance test vector to enable production in the resistance test vector host cell of infectious pseudotyped resistance test vector viral particles.
Drug resistance tests performed with resistance test vectors were carried out using packaging host and target host cells consisting of the human embryonic kidney cell line 293.
Resistance tests were carried out with resistance test vectors using two host cell types. Resistance test vector viral particles were produced by a first host cell (the resistance test vector host cell) that was prepared by transfecting a packaging host cell with the resistance test vector and the packaging expression vector. The resistance test vector viral particles were then used to infect a second host cell (the target host cell) in which the expression of the indicator gene is measured.
The resistance test vectors containing a functional luciferase gene cassette were constructed as described above and host cells were transfected with the resistance test vector DNA. […]

[1] = Sample 47 (K103K/N, V106V/A, Y181Y/C, G190G/A)
[2] = Sample 58 (K103N, Y181Y/C, G190G/A)
[3] = Sample 62 (K103H, P225P/H, T369T/I)
[4] = Sample 90 (K103K/N, Y181C, G190A)

Row | Structure (SMILES) | fold change in IC50, PR-RT (Sample 31 (K103N)) [fold] | fold change in IC50, PR-RT (Sample 33 (K103S)) [fold] | fold change in IC50, PR-RT (Sample 34) [fold] | fold change in IC50, PR-RT (Sample 35 (K103H)) [fold] | fold change in IC50, PR-RT (Sample 36 (K103K/W)) [fold] | fold change in IC50, PR-RT (Sample 38 (K103N)) [fold] | fold change in IC50, PR-RT (Sample 39 (T369A)) [fold] | fold change in IC50, PR-RT (Sample 42 (G190G/A)) [fold] | fold change in IC50, PR-RT (Sample 45) [fold] | fold change in IC50, PR-RT [1] [fold] | fold change in IC50, PR-RT (Sample 50 (K103N)) [fold] | fold change in IC50, PR-RT (Sample 51) [fold] | fold change in IC50, PR-RT (Sample 52) [fold] | fold change in IC50, PR-RT [2] [fold] | fold change in IC50, PR-RT [3] | fold change in IC50, PR-RT (Sample 64 (T369T/A)) [fold] | fold change in IC50, PR-RT (Sample 69) [fold] | fold change in IC50, PR-RT (Sample 72) [fold] | fold change in IC50, PR-RT (Sample 80 (K103K/N, Y181Y/C)) [fold] | fold change in IC50, PR-RT (Sample 81 (K103N, P225H)) [fold] | other results
1 | CC(C)Nc1cccnc1N1CCN(C(=O)c2cc3cc(NS(C)(=O)=O)ccc3[nH]2)CC1 [DLV, delavirdine] | 16.4 | 8.7 | 0.5 | 6.5 | 6.7 | 128.0 | 0.2 | 0.4 | 0.1 | 6.2 | 250.0 | 0.3 | 3.1 | 149.6 | 16.0 fold and 16.00 fold | 1.6 | 1.4 | 0.9 | 65.0 | 12.0 | fold change in IC50, PR-RT (Sample 84): 0.9 fold; fold change in IC50, PR-RT (Sample 85): 25.2 fold; fold change in IC50, PR-RT (Sample 87): 0.7 fold; fold change in IC50, PR-RT (Sample 89 (L1001, K103N)): 250.0 fold; fold change in IC50, PR-RT [4]: 4.1 fold; fold change in IC50, PR-RT (Sample 92): 1.1 fold; fold change in IC50, PR-RT (Sample 93): 0.3 fold
2 | O=C1Nc2ccc(Cl)cc2[C@@](C#CC2CC2)(C(F)(F)F)O1 [EFV, efavirenz] | 22.8 | 7.1 | 0.4 | 9.3 | 6.7 | 42.0 | 0.3 | 3.1 | 0.2 | 123.9 | 63.2 | 0.5 | 1.3 | 26.4 | 20 fold and 20.0 fold and 20.00 fold | 1.1 | 0.8 | 0.5 | 11.0 | 98.0 | fold change in IC50, PR-RT (Sample 84): 0.7 fold; fold change in IC50, PR-RT (Sample 85): 22.0 fold; fold change in IC50, PR-RT (Sample 87): 0.9 fold; fold change in IC50, PR-RT (Sample 89 (L1001, K103N)): 700.0 fold; fold change in IC50, PR-RT [4]: 50.5 fold; fold change in IC50, PR-RT (Sample 92): 1.0 fold; fold change in IC50, PR-RT (Sample 93): 0.8 fold
3 | Cc1ccnc2c1NC(=O)c1cccnc1N2C1CC1 [NVP, nevirapine] | 88.4 | 23.3 | 0.3 | 25.2 | 13.0 | 114.0 | 0.3 | 34.0 | 0.3 | 400.0 | 153.9 | 0.4 | 2.0 | 400.0 | 64 fold and 64.0 fold and 64.00 fold | 1.0 | 1.0 | 0.7 | 46.0 | 92.0 | fold change in IC50, PR-RT (Sample 84): 0.8 fold; fold change in IC50, PR-RT (Sample 85): 131.7 fold; fold change in IC50, PR-RT (Sample 87): 0.8 fold; fold change in IC50, PR-RT (Sample 89 (L1001, K103N)): 37.0 fold; fold change in IC50, PR-RT [4]: 400.0 fold; fold change in IC50, PR-RT (Sample 92): 1.1 fold; fold change in IC50, PR-RT (Sample 93): 1.6 fold
